The record followed here is patent US20230081390A1, “INHIBITORS OF RAF KINASES” (Kinnate Biopharma Inc., priority 2019, published 2023).

The test concerns the target human RAF1 (Homo sapiens, UniProt P04049). Nature of the test: Protein kinase assay (33P-ATP filter binding), human RAF1, 10-dose IC50. The format is biochemical. The following applies: MEK1 (K97R) substrate 3 micromolar, ATP 10 micromolar, read-out: RAF-1 IC50. The method, then:
In brief, for each reaction, kinase and substrate were mixed in a buffer containing 20 mM HEPES (pH 7.5), 10 mM MgCl2, 1 mM EGTA, 0.02% Brij35, 0.02 mg/mL BSA, 0.1 mM Na3VO4, 2 mM DTT, and […]. All compounds were solubilized in DMSO. Compounds were then added to each reaction mixture via acoustic dispense using an ECHO 550 nanoliter dispenser. For human RAF1 testing, human MEK1 (K97R) was used as a substrate at a concentration of 3 micromolar, with a final ATP concentration of 10 micromolar. […] Reactions were carried out at room temperature for 2 hr and spotted onto P81 ion exchange cellulose chromatography paper (Reaction Biology). […] The percent remaining kinase activity relative to a vehicle-containing (DMSO) kinase reaction was calculated for each kinase/inhibitor pair. IC50 values were calculated using Prism 5 (GraphPad).

Molecules are shown by their SMILES. Some results are limits rather than exact numbers.

Chain of human RAF1 (P04049 whole entry): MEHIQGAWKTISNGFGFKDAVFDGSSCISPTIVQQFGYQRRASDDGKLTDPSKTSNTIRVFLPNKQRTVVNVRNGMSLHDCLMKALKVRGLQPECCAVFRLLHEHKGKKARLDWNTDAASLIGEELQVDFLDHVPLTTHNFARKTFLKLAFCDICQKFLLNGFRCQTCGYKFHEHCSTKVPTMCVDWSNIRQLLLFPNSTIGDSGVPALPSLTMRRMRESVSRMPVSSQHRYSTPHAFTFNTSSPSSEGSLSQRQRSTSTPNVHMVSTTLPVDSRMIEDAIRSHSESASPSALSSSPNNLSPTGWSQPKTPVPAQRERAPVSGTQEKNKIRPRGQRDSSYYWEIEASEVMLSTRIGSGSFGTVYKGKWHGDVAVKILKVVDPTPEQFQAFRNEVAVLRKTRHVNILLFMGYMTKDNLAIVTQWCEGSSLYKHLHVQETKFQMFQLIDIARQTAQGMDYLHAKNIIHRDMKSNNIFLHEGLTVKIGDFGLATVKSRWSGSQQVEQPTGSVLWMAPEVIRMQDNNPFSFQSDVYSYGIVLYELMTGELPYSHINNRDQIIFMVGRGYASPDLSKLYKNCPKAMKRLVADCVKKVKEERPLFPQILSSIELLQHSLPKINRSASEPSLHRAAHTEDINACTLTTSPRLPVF

The IC50 is the concentration at which inhibition is half-maximal. Turning to `Cc1cc(F)c(NC(=O)N2CC[C@H](OC(F)(F)F)C2)cc1-c1cc(OCCO)nc(N2CCOCC2)c1` (single isomer, unassigned) [Example 78], the concentration for half-maximal inhibition (IC50) is under 10 nM.

Consider `Cc1cc(F)c(NC(=O)N2CC3CCC3(C(F)(F)F)C2)cc1-c1cc(OCCO)nc(N2CCOCC2)c1` (single isomer, unassigned) [Example 82, N-[2-fluoro-5-[2-(2-hydroxyethoxy)-6-(morpholin-4-yl)pyridin-4-yl]-4-methylphenyl]-1-(trifluoromethyl)-3-azabicyclo[3.2.0]heptane-3-carboxamide], for which the IC50 was under 10 nM.

For the molecule `Cc1cc(F)c(NC(=O)N2CC3CCC3(C(F)(F)F)C2)cc1-c1cc(OCCO)nc(N2CCOCC2)c1` (single isomer, unassigned) [Example 83, N-[2-fluoro-5-[2-(2-hydroxyethoxy)-6-(morpholin-4-yl)pyridin-4-yl]-4-methylphenyl]-1-(trifluoromethyl)-3-azabicyclo[3.2.0]heptane-3-carboxamide], the concentration for half-maximal inhibition (IC50) was under 10 nM.

As to `Cc1cc(F)c(NC(=O)N2CC[C@@H](C(F)(F)C(F)(F)F)C2)cc1-c1cc(OCCO)nc(N2CCOCC2)c1` (single isomer, unassigned) [Example 84], the 50% inhibitory concentration (IC50) was under 10 nM.

With `Cc1cc(F)c(NC(=O)N2CCC(C(F)(F)C(F)(F)F)C2)cc1-c1cc(OCCO)nc(N2CCOCC2)c1` (single isomer, unassigned) [Example 85], the concentration for half-maximal inhibition (IC50) is under 10 nM.

Consider `Cc1cc(F)c(NC(=O)N2CCC3(CCC3(F)F)C2)cc1-c1cc(OCCO)nc(N2CCOCC2)c1` (single isomer, unassigned) [Example 90, 1,1-difluoro-N-[2-fluoro-5-[2-(2-hydroxyethoxy)-6-(morpholin-4-yl)pyridin-4-yl]-4-methylphenyl]-6-azaspiro[3.4]octane-6-carboxamide], for which the IC50 is under 10 nM.

Turning to `Cc1cc(F)c(NC(=O)N2CCC3(CCC3(F)F)C2)cc1-c1cc(OCCO)nc(N2CCOCC2)c1` (single isomer, unassigned) [Example 91, 1,1-difluoro-N-[2-fluoro-5-[2-(2-hydroxyethoxy)-6-(morpholin-4-yl)pyridin-4-yl]-4-methylphenyl]-6-azaspiro[3.4]octane-6-carboxamide], the IC50 was under 10 nM.

In the case of `Cc1cc(F)c(NC(=O)N2CCC(C(C)C(F)(F)F)C2)cc1-c1cc(OCCO)nc(N2CCOCC2)c1` (single isomer, unassigned) [Example 100, N-[2-fluoro-5-[2-(2-hydroxyethoxy)-6-(morpholin-4-yl)pyridin-4-yl]-4-methylphenyl]-3-(1,1,1-trifluoropropan-2-yl)pyrrolidine-1-carboxamide], the IC50 is under 10 nM.

As to `Cc1cc(F)c(NC(=O)N2CCC(C(C)C(F)(F)F)C2)cc1-c1cc(OCCO)nc(N2CCOCC2)c1` (single isomer, unassigned) [Example 101, N-[2-fluoro-5-[2-(2-hydroxyethoxy)-6-(morpholin-4-yl)pyridin-4-yl]-4-methylphenyl]-3-(1,1,1-trifluoropropan-2-yl)pyrrolidine-1-carboxamide], the IC50 was under 10 nM.

Turning to `Cc1cc(F)c(NC(=O)N2CCC(C(C)C(F)(F)F)C2)cc1-c1cc(OCCO)nc(N2CCOCC2)c1` (single isomer, unassigned) [Example 102, N-[2-fluoro-5-[2-(2-hydroxyethoxy)-6-(morpholin-4-yl)pyridin-4-yl]-4-methylphenyl]-3-(1,1,1-trifluoropropan-2-yl)pyrrolidine-1-carboxamide], the concentration for half-maximal inhibition (IC50) is under 10 nM.

For `Cc1cc(F)c(NC(=O)N2CCC(C(C)C(F)(F)F)C2)cc1-c1cc(OCCO)nc(N2CCOCC2)c1` (single isomer, unassigned) [Example 103, N-[2-fluoro-5-[2-(2-hydroxyethoxy)-6-(morpholin-4-yl)pyridin-4-yl]-4-methylphenyl]-3-(1,1,1-trifluoropropan-2-yl)pyrrolidine-1-carboxamide], the IC50 is under 10 nM.

For the molecule `Cc1cc(F)c(NC(=O)N2CC[C@]3(C2)CC(F)(F)C3(F)F)cc1-c1cc(OCCO)nc(N2CCOCC2)c1` (single isomer, unassigned) [Example 105], the concentration for half-maximal inhibition (IC50) is under 10 nM.
